The values below come from a melting point compilation (Tetko et al.; mined from patent text by program, amines drawn as free bases though some values may be those of a salt).

Regarding `N#Cc1ccccc1N1CCN(CNC(=O)c2ccccc2)CC1`, the melting point – broadly, the temperature, or range, at which the solid turns liquid – lay in the range of 148 to 150 °C. The same measure for `OCc1ccc(/C=C/c2ccc(OC(F)(F)F)cc2)cc1`: 161 to 163 °C; for `ClC(c1ccccc1)(c1ccccc1)c1ccncc1`: 84.5 to 86.5 °C. Compound `Cc1nc(-c2cccc(OC(C)C)c2)sc1C(=O)O` gave a melting point of 177 to 179 °C. The same measure for `O=C1Cc2cc(Br)ccc2O1`: 147 to 148 °C; for `O=C(OC1CCCCC1)c1ncn2c1[C@@H]1CCCN1C(=O)c1c(Cl)cccc1-2`: 166 to 167 °C; for `COc1ccc(/C=C2\C3=C(CCCC3)CCN2C(C)=O)cc1`: 74.5 to 76 °C.

As for `CC(C)(C)CC(C)(C)c1cc(-n2nc3ccc([N+](=O)[O-])cc3n2)c(O)c(C(C)(C)c2ccccc2)c1`, the melting point was in the range of 153 to 156 °C. Compound `CCCC(=O)C1C(=O)CC(c2ccc(C)cc2)CC1=O` (stereo not drawn) showed a melting point of 76 to 78 °C. `N[C@@H](Cc1c[nH]c2ccccc12)c1nc2c(C(F)(F)F)cccc2c(O)c1C(=O)Nc1nccs1` returned a melting point of 190 °C.

As to `O=C(O)c1ccc2c(c1)C(=O)N(c1ccc(C3(c4ccc(N5C(=O)c6ccc(C(=O)O)cc6C5=O)cc4)c4ccccc4-c4ccccc43)cc1)C2=O`, the melting point was in the range of 328 to 331 °C. On to `N#Cc1ccc(-c2cn(-c3ccc(C#N)cc3)c(SCC(O)CO)n2)cc1` (stereo not drawn), for which the melting point fell in the range of 190 to 195 °C. With `C1=C(c2cc3ccccc3[nH]2)CCN(CCC2Cc3ccccc3C2)C1` the figure was 175 to 176 °C; with `CCCc1nc2c(N)nc3cc(Oc4cccc(NCC)c4)ccc3c2n1CC(C)C`, 168 to 174 °C.

As to `COc1cc(C(C)=O)ccc1OCCCCCl`, the melting point fell in the range of 68.5 to 70.5 °C. With `COC(c1ccc(Cl)c2nc3n(c12)CCCN3c1ccc(Cl)cc1Cl)C(F)(F)F` (stereo not drawn) the figure was 161 to 163 °C. The compound `CC(C)c1ccc2cc(O)ccc2c1` displayed a melting point of 109 to 110 °C.

As for `Cc1[nH]c(C(=O)NCC(=O)O)c(C)c1-c1nc2ccc(C(=O)c3ccccc3)cc2[nH]1`, the melting point was 274 to 276 °C. The same measure for `Brc1ccc2c(c1)C(c1ccccn1)=NCc1nnc(Br)n1-2`: 236 to 238 °C; for `O=C(O)c1ccccc1-c1ccc2c(C(=O)NCC34CC5CC(CC(C5)C3)C4)c(Cl)ccc2n1`: 156 to 158 °C; for `CCCCC(CC)COc1cc(CCl)c(OC)cc1CCl` (stereo not drawn): 58 to 60 °C.

For the compound `OCC1CCN(c2nc3ccccc3s2)CC1`, the melting point was 76 to 80 °C. With `COc1ccc(-c2c[nH]c(=S)n2O)cc1` the figure was 150 °C.

On to `CCOc1ccc2c(c1)n(C1CCCCC1)c(=O)n2S(=O)(=O)c1ccc(C(=O)O)cc1OC`, for which the melting point came to 205 °C.

Take `CCN(c1cc2c3c(c1)CCCC3(C)CCC2)c1ncc(C(=O)O)cn1`: the melting point was 257 to 258 °C. With `NC(=O)NC(=O)c1coc2ccccc2c1=O` the figure was 200 to 217 °C; with `NC(=O)C(O)c1c(Cl)cccc1Cl` (stereo not drawn), 155 to 158 °C; with `O=C(NS(=O)(=O)c1cc(C(F)(F)F)ccc1Cl)c1cn2cc(C(F)(F)F)cnc2n1`, 211 to 212 °C. The same measure for `CNC(=O)[C@H](C)C[C@H](O)[C@H](CC1CCCCC1)NC(=O)OC(C)(C)C`: 144 to 145 °C; for `Cc1ccc(C(=O)CO)cc1`: 83 to 87 °C; for `CN(C)C(=NC(=O)C(O)(C(N)=O)c1ccc(Cl)c(Cl)c1)N(C)C` (stereo not drawn): 98 to 100 °C. The same measure for `NC(=O)NC(=O)c1nc(Cl)c(Cl)[nH]1`: above 290 °C. For `O=c1c2ccccc2ncn1C1CCN(Cc2ccccc2)CC1`, the melting point stood at 147 °C. With `CC(=Cc1c(-c2ccccc2)nc2sc(C)nn12)C(=O)O` the figure was 298 to 300 °C. In turn, `NC(=O)Cn1c(-c2ccc(Cl)cc2)nc2cccnc21` returned a melting point of 270 to 271 °C.

As for `O=c1[nH]c2ncc(-c3ccc(CO)cc3)nc2n1CC1CCCCC1`, the melting point fell in the range of 275 to 277 °C. With `O=C(O)CC1COc2cc(Cl)c(Cl)cc2O1` (stereo not drawn) the figure was 145 to 147 °C; with `O=C(CCC(NS(=O)(=O)c1ccc2oc3ccccc3c2c1)C(=O)O)NCCc1ccccc1` (stereo not drawn), 197 to 201 °C. The compound `COc1ccc(-c2c(C(=O)O)n(Cc3ccc4c(c3)OCO4)c3ccccc23)cc1` gave a melting point of 109 to 111 °C. The same measure for `CC(C)c1ccc2c(c1)NC(=O)CC(c1ccnc(C#N)c1)=N2`: 173 to 178 °C; for `CCOc1nc2c(nc1C(=O)Nc1nccs1)c(C)nn2CC`: 158 to 159 °C.

The compound `Oc1cnccc1CCCOc1cccnc1Nc1cccc(Br)c1` had a melting point of 138 to 141 °C. Consider `CCCc1cc(-c2ccc(Cl)cc2)nc2c(C(=O)Nc3cccc(S(C)(=O)=O)c3)cnn12`, for which the melting point fell in the range of 214 to 217 °C. With `CC(C)(C)c1ccc(Cn2ccc3ccc(-c4ccc(OC(F)(F)F)cc4)cc32)cc1` the figure was 100 to 102 °C.

Turning to `CC(=O)OC1C(C)OC(Oc2ncn(Cc3ccc([N+](=O)[O-])cc3)c2C(N)=O)C(OC(C)=O)C1OC(C)=O` (stereo not drawn), the melting point lay within 103 to 105 °C. The same measure for `O=C(O)c1cccc(NCCOCc2ccccc2)c1C(=O)O`: 158 to 160 °C; for `COC(=O)c1ccc(F)c2c1CC(N(CCCCc1c[nH]c3ccc(F)cc13)C1CCC1)CO2` (stereo not drawn): 115 °C. Compound `COc1cc2c(CC#N)c[nH]c2cc1F` returned a melting point of 97 to 98 °C.

In turn, `CONC(=O)NC1CCCc2sccc21` (stereo not drawn) registered a melting point of 138 °C. In turn, `CN1CCc2cc3ccccc3n2CC1` showed a melting point of 59 to 60 °C. With `O=C(Nc1ccccc1C(F)(F)F)ONC1=Nc2ccc(Cl)cc2C(c2ccccc2)=NC1` the figure was 190 °C; with `O=C(NCCOc1ccc(CC(Sc2ccccc2)C(=O)O)cc1)c1ccc(-c2ccccn2)cc1` (stereo not drawn), 75 to 77 °C. With `CC(C#N)c1ccc(-c2nc3ccccc3o2)cc1` (stereo not drawn) the figure was 116 to 117 °C; with `CCCCc1ncc(/C=C(\Cc2cccs2)C(=O)O)n1Cc1ccc(C(=O)O)cc1[N+](=O)[O-]`, 163 °C. `N#CC1c2ccccc2CSc2ccccc21` (stereo not drawn): the melting point is 128 to 130 °C.

Consider `CC[C@@]1(C=O)CCCN(CCc2c[nH]c3ccc(OC)cc23)C1=O`, for which the melting point is 108 °C. The same measure for `C=C(C)c1ccc(C2=NC(=O)C(C)(C(=C)C)N2)nc1` (stereo not drawn): 123 to 125 °C; for `CCCCc1ccc(-c2ccc(CCc3ccc(F)cc3)cc2)c(F)c1`: 35 °C. With `CC1(C)COc2cc(C(F)(F)F)ccc2C(O)(c2ccccn2)C1` (stereo not drawn) the figure was 78 °C. In turn, `COC(=O)c1c(Cc2ccc(S(C)(=O)=O)nc2)c(=O)c2ccc(C)nc2n1-c1ccccc1` had a melting point of 217 to 218 °C. The same measure for `CSc1nccc(-c2c(-c3ccc(F)cc3)nc3occn23)n1`: 144 to 145 °C; for `CCC(C)(C)c1ccc(Oc2ccc(C(F)(F)F)cc2NC(=O)Nc2cc(C(F)(F)F)cc(C(F)(F)F)c2)c(C(=O)O)c1`: 238 to 240 °C. With `COC(=O)C1SC=CC1Sc1ccccc1` (stereo not drawn) the figure was 43 to 45 °C; with `CCn1cnc2c(cnc3c2cnn3CC)c1=O`, 167 to 169 °C; with `N#Cc1cccc(NC(=O)NCc2cccc3c2CN(C2CCC(=O)NC2=O)C3=O)c1` (stereo not drawn), 330 to 333 °C. Consider `C[N+]([O-])=C(Cn1cncn1)c1ccccc1`, for which the melting point was in the range of 117 to 119 °C. With `CCCS(=O)(=O)NNC(=O)NNS(=O)(=O)CCC` the figure was 191 to 194 °C; with `O=C(O)C1=C(c2cccs2)c2cc(Cl)ccc2OC1C(F)(F)F` (stereo not drawn), 201 to 207 °C. The same measure for `COC(=O)C(Oc1ccc(Cl)cc1)c1ccc(I)cc1` (stereo not drawn): 122 to 125 °C; for `CS(=O)(=O)c1cccc(-c2cc(N3CCOCC3)cc(Nc3ccc(OC(F)(F)F)cc3)n2)c1`: 233 to 235 °C.

`Clc1ccc2c(c1)C(c1ccccc1)=NCc1nnc(CNCC3CC3)n1-2` came in with a melting point of 154 to 157 °C.

In turn, `Nc1c([N+](=O)[O-])cc(O)cc1[N+](=O)[O-]` displayed a melting point of 230 °C. For the compound `COc1ncc(C=C2SC(=S)N(CC(=O)O)C2=O)cc1-c1cc2c(cc1C)C(C)(C)CCC2(C)C`, the melting point lay within 253 to 255 °C. The same measure for `CC(CSc1nc(-c2ccc(F)cc2)c(-c2ccc(F)cc2)[nH]1)Sc1nc(-c2ccc(F)cc2)c(-c2ccc(F)cc2)[nH]1` (stereo not drawn): 243 to 245 °C; for `Cc1c(C)c2c(c(C)c1OCCc1ccccc1)C(c1ccc(C(C)C)cc1)C(C)(C)O2` (stereo not drawn): 72 to 74 °C. As for `CCCCCCCCCCCCn1nnc(C(C(=O)Nc2cc(C)c(O)c(C)c2C)c2ccccc2)n1` (single isomer, unassigned; (+)), the melting point was 105 °C. With `CC(C)(C)OC(=O)NNC(=N)C(Cl)(Cl)Cl` the figure was 150 °C; with `COc1cc(N)c(Cl)cc1C(=O)NCC1CCN(CCCCCC(=O)c2ccc(F)cc2F)CC1`, 115 to 117 °C. The same measure for `CCOC(=O)C1CCc2scnc2C1=O` (stereo not drawn): 81 to 82 °C; for `Cc1cc(=O)[nH]c(SCc2ccc(Br)cc2N(C)C)n1`: 163 to 164 °C; for `Cc1cc(O)c(Cl)c(O)c1`: 72 °C. The same measure for `CCCC(NS(N)(=O)=O)C(=O)OC` (stereo not drawn): 63 to 64 °C; for `CN=CN(C)c1ccccc1C#N`: 60 to 63 °C. `COc1cc(Br)ccc1Oc1ccccc1O` came in with a melting point of 107 to 109 °C. Consider `COC(=O)c1ccc2cc(C(=O)c3cc(O)c4c(c3)C(C)(C)CCC4(C)C)ccc2c1`, for which the melting point was determined as 222 °C. `O=C(NO)c1ccc(CNC(=O)c2[nH]c(-c3cccs3)cc2-c2ccc(F)cc2)nc1` returned a melting point of 151 to 152 °C. With `O=C(c1ccc([N+](=O)[O-])cc1[N+](=O)[O-])N1CCOCC1` the figure was 159 to 161 °C. The same measure for `COC(=O)c1cc([N+](=O)[O-])cc(-c2ccc(NC(=O)OC(C)(C)C)cc2)c1C`: 131 to 132 °C.
